According to publication PMC4769088, “Antifungal Activity and Action Mechanism of Histatin 5-Halocidin Hybrid Peptides against Candida ssp” (PLoS ONE, 2016):
Where a SMILES comes first, the peptide text is derived from it. Bridges are numbered along the chain shown (N, C = ends). Roman numbers before positions name the chains, in order. Where no end group is shown, it is not given here.

Columns and labels:
[1] = CD spectra, secondary structure analysis; assay type: physicochemical; details: solvent Laminarin (20 mg/ml in buffer), 200 μg/ml peptide
Candida albicans = assay type: cell-based; details: for reduction of cell viability: 1 μg/ml peptide, in 1 hour, colony count assay
Protocol: The candidacidal activities of the peptides were tested by using standard microdilution plate assays, radial diffusion assays and broth dilution assay slightly modified from the procedure recommended by the National Committee for Clinical Laboratory Standards. For the candidacidal assays, C. albicans cells were grown in YPD medium and washed twice with 10 mM sodium phosphate buffer (NaPB; Na2HPO4, NaH2PO4, pH 7.4). The cells (1 x 10^6) were then mixed with different concentrations of peptides and incubated at 30°C with constant shaking for 60 min. For energy depletion experiments, cells were pre-incubated with 10 mM NaPB containing 5 mM NaN3 at 30°C for 60 min before the addition of peptides. The cell suspensions were diluted in 10 mM NaPB and aliquots of 500 cells were spread onto YPD agar plates then incubated for 24 h at 30°C to visualize the surviving colonies. Cell survival was expressed as a percentage of that for the control, and the loss of viability was calculated as [1 x (number of colonies from peptide-treated cells/number of colonies from control cells)] x 100. Candidacidal assays were performed in triplicate. For the radial diffusion assay, C. albicans cells were grown in YPD medium overnight and washed twice with 10 mM NaPB. Washed yeast-phase C. albicans cells (1 x 10^6 CFU) were trapped in thin underlay gels containing 9 mM sodium phosphate, 1 mM sodium citrate buffer, 1% (wt/vol) agarose (A6013; Sigma), and 0.3 mg of Sabouraud dextrose broth (Difco)/ml. After incubation at 37°C for 3 h, a 10 ml overlay gel of 1% agarose and 6% Sabouraud dextrose broth was poured on the underlay gel and then the plates were incubated overnight at 37°C. The clear-zone diameters were measured to the nearest 0.1 mm and graphed against the peptide concentration. Zone diameters were expressed in units (0.1 mm = 1 unit). For the broth dilution assay, the Candida strains were cultured in LYM broth for 18 h at 30°C. The numbers of yeasts were counted using a hemocytometer. […] The antifungal activities were evaluated after 24 h of incubation at 30°C by the observation of visible turbidity the wells. The MIC values were expressed as intervals (a–b), with a representing the highest tested concentration at which microbes continue to grow, and b representing the lowest concentration at which growth inhibition could be detected.
Fig 4 Killing kinetics of Hst5, P113, di-18Hc, hybrid peptides against Candida albicans. Killing kinetics of peptides against C. albicans was measured by colony count assay. Candida cells were treated with a different concentration of peptides at a determined time. […] Killing percent was calculated with the following equation: Killing % = (number of control cell—number of treated cell)/control cell × 100.

Row | Compound | Secondary structure (%) Beta [1] | Secondary structure (%) Helix [1] | Secondary structure (%) Random [1] | Secondary structure (%) Turn [1] | reduction of cell viability (Candida albicans) | killing kinetics (time) (Candida albicans; membrane-attacking peptide with fast kinetics)
1 | C[C@H](NC(=O)[C@H](Cc1c[nH]cn1)NC(=O)[C@H](CO)NC(=O)[C@@H](N)CC(=O)O)C(=O)N[C@@H](CCCCN)C(=O)N[C@@H](CCCNC(=N)N)C(=O)N[C@@H](Cc1c[nH]cn1)C(=O)N[C@@H](Cc1c[nH]cn1)C(=O)NCC(=O)N[C@@H](Cc1ccc(O)cc1)C(=O)N[C@@H](CCCCN)C(=O)N[C@@H](CCCNC(=N)N)C(=O)N[C@@H](CCCCN)C(=O)N[C@@H](Cc1ccccc1)C(=O)N[C@@H](Cc1c[nH]cn1)C(=O)N[C@@H](CCC(=O)O)C(=O)N[C@@H](CCCCN)C(=O)N[C@@H](Cc1c[nH]cn1)C(=O)N[C@@H](Cc1c[nH]cn1)C(=O)N[C@@H](CO)C(=O)N[C@@H](Cc1c[nH]cn1)C(=O)N[C@@H](CCCNC(=N)N)C(=O)NCC(=O)N[C@@H](Cc1ccc(O)cc1)C(=O)O [Hst 5, Histatin 5] | 21.7% | 0.0% | 62% | 16.3% |  | 
2 | CC(C)C[C@H](NC(=O)CNC(=O)[C@H](Cc1c[nH]cn1)NC(=O)[C@H](Cc1c[nH]cn1)NC(=O)[C@H](CC(C)C)NC(=O)[C@H](CC(C)C)NC(=O)[C@H](C)NC(=O)[C@H](CC(N)=O)NC(=O)[C@H](CC(C)C)NC(=O)[C@@H](N)Cc1c[nH]c2ccccc12)C(=O)N[C@@H](CC(N)=O)C(=O)N[C@@H](CSSC[C@H](NC(=O)[C@H](CC(N)=O)NC(=O)[C@H](CC(C)C)NC(=O)CNC(=O)[C@H](Cc1c[nH]cn1)NC(=O)[C@H](Cc1c[nH]cn1)NC(=O)[C@H](CC(C)C)NC(=O)[C@H](CC(C)C)NC(=O)[C@H](C)NC(=O)[C@H](CC(N)=O)NC(=O)[C@H](CC(C)C)NC(=O)[C@@H](N)Cc1c[nH]c2ccccc12)C(=O)N[C@@H](C)C(=O)N[C@@H](CCCCN)C(=O)NCC(=O)N[C@H](C(=O)N[C@@H](CC(C)C)C(=O)N[C@@H](C)C(N)=O)C(C)C)C(=O)N[C@@H](C)C(=O)N[C@@H](CCCCN)C(=O)NCC(=O)N[C@H](C(=O)N[C@@H](CC(C)C)C(=O)N[C@@H](C)C(N)=O)C(C)C [di-18Hc, reference compound] (I: H-WLNALLHHGLNCAKGVLA-NH2 / II: H-WLNALLHHGLNCAKGVLA-NH2; disulfide I:12-II:12 (inferred); N-terminus assumed) | 29.7% | 29.2% | 30.3% | 10.8% | 99% | ≤ 30 s
3 | CC(C)C[C@H](NC(=O)CNC(=O)[C@H](Cc1c[nH]cn1)NC(=O)[C@H](Cc1c[nH]cn1)NC(=O)[C@H](CCCNC(=N)N)NC(=O)[C@H](CCCCN)NC(=O)[C@H](C)N)C(=O)N[C@@H](CC(N)=O)C(=O)N[C@@H](CSSC[C@H](NC(=O)[C@H](CC(N)=O)NC(=O)[C@H](CC(C)C)NC(=O)CNC(=O)[C@H](Cc1c[nH]cn1)NC(=O)[C@H](Cc1c[nH]cn1)NC(=O)[C@H](CCCNC(=N)N)NC(=O)[C@H](CCCCN)NC(=O)[C@H](C)N)C(=O)N[C@@H](C)C(=O)N[C@@H](CCCCN)C(=O)N[C@@H](Cc1ccccc1)C(=O)N[C@@H](Cc1c[nH]cn1)C(N)=O)C(=O)N[C@@H](C)C(=O)N[C@@H](CCCCN)C(=O)N[C@@H](Cc1ccccc1)C(=O)N[C@@H](Cc1c[nH]cn1)C(N)=O [di-PH2] (I: H-AKRHHGLNCAKFH-NH2 / II: H-AKRHHGLNCAKFH-NH2; disulfide I:9-II:9 (inferred); N-terminus assumed) | 0.0% | 20.5% | 61.1% | 18.4% | 99% | 
4 | CC(C)C[C@H](NC(=O)[C@@H](N)Cc1c[nH]c2ccccc12)C(=O)N[C@@H](CC(N)=O)C(=O)N[C@@H](C)C(=O)N[C@@H](CCCCN)C(=O)N[C@@H](CCCNC(=N)N)C(=O)N[C@@H](Cc1c[nH]cn1)C(=O)N[C@@H](Cc1c[nH]cn1)C(=O)NCC(=O)N[C@@H](Cc1ccc(O)cc1)C(=O)N[C@@H](CCCCN)C(=O)N[C@@H](CSSC[C@H](NC(=O)[C@H](CCCCN)NC(=O)[C@H](Cc1ccc(O)cc1)NC(=O)CNC(=O)[C@H](Cc1c[nH]cn1)NC(=O)[C@H](Cc1c[nH]cn1)NC(=O)[C@H](CCCNC(=N)N)NC(=O)[C@H](CCCCN)NC(=O)[C@H](C)NC(=O)[C@H](CC(N)=O)NC(=O)[C@H](CC(C)C)NC(=O)[C@@H](N)Cc1c[nH]c2ccccc12)C(=O)N[C@@H](CCCCN)C(=O)N[C@@H](Cc1ccccc1)C(=O)N[C@@H](Cc1c[nH]cn1)C(N)=O)C(=O)N[C@@H](CCCCN)C(=O)N[C@@H](Cc1ccccc1)C(=O)N[C@@H](Cc1c[nH]cn1)C(N)=O [di-WP2] (I: H-WLNAKRHHGYKCKFH-NH2 / II: H-WLNAKRHHGYKCKFH-NH2; disulfide I:12-II:12 (inferred); N-terminus assumed) | 24.5% | 0.0% | 54.7% | 20.8% | 99% | 
5 | AKRHHGYKRKFH-NH2 [P113] | 0.2% | 2.8% | 72.2% | 24.7% |  | 
